The results in this text go back to US20230151386A1, “Apparatus for Improved Transfection Efficiency and / or Protein Expression and Method of Use Thereof” (St Andrews Pharmaceutical Technology Ltd., priority 2020, published 2023).

SMILES strings stand for the structures.

The experiment relates to p53alpha. In words: Western blot of p53 isoforms in HCT 116 cells after doxorubicin with or without pulsed technology. The format is cell-based, Human. The settings on record: 0.25 μM for 1 hour. As for the experimental part: Human Colon Tumour (HCT) 116 cells (adherent cells) (ATCC, USA-ATCC® CCL-247™) were seeded at a density of 3×10^5 cells per well in two CELLSTAR®6-well plates (9.6 cm^2) in a final volume of 5 mL Dulbeccos Modified Eagle Medium (DMEM) (Thermo Fisher, USA)+10% Fetal Bovine Serum (FBS) (Hyclone, USA) 24 hours before treatment.
The naked agent used was Doxorubicin (0.25 μM) (Sigma Aldrich) in absolute ethanol and was given to the cells for a 1 hour treatment period and incubated at 37° C., at 5% CO^2.
After treatment the media was removed and fresh media was added to the cells. One of the plates was incubated directly at 37° C., at 5% CO^2 and the second plate was placed in a different incubator and pulsed using the pulsed technology of the present invention at 37° C., at 5% CO^2.
Protein extracts were collected at 3 hours, 6 hours, 9 hours, 16 hours or 24 hours of treatment for analysis by SDS-page.
1. For protein extraction the cells were washed twice with ice-cold PBS and then lysed in NP-40 extraction buffer (50 mM Tris ph 7.5; 10% glycerol; 0.1% “NP-40 Alternative” (Merck Millipore, USA); 100 mM NaCl; 0.2 mM EDTA) supplemented with 1× Complete™ Protease Inhibitor Cocktail (Roche, Switzerland). Extracts were sonicated (20 seconds, 20% amplitude) and protein concentration was determined using BCA™ Protein Assay Kit (ThermoFisher Scientific USA) according to the manufacturers recommendations.
1. Protein extracts (15/20 μg depending on the experiment) were supplemented with 0.1M dithiothreitol (DTT) and 1×LDS buffer (Invitrogen, USA) and were heated at 95° C. for 10 min before loading on NuPAGE 10% Bis-Tris polyacrylamide gels (Invitrogen, USA).
2. Protein samples were separated by electrophoresis (100V) using 1×MOPS Running Buffer. Transfer of proteins was performed at 12V overnight onto a nitrocellulose membrane (Protran 0.1 μm from GE Healthcare, USA) in 1× Transfer Buffer supplemented with 20% methanol. 1× Transfer Buffer is prepared from 10× Wet blot solution containing 144 g of glycine and 30 g Tris-Base in a final volume of 1 L milli-Q water.
3. Membranes were blocked for 30 min in 5% BSA diluted in PBS—0.1% Tween20 before being incubated overnight with a primary antibody (Mouse monoclonal antibody D01). After a wash of 15 min. in PBS-Tween20, membranes were incubated for 1 h with a corresponding secondary antibody (HRP conjugated Donkey anti Mouse). […]
At the end of the incubation membranes were washed twice with PBS-Tween20 for 15 min followed by a final 10 min. wash with PBS. The chemiluminescence signal was detected on Hyperfilm™ ECL (Cytiva, USA) using the Amersham ECL Western Blotting Detection System (Cytiva, USA).

In the case of `COc1cccc2c1C(=O)c1c(O)c3c(c(O)c1C2=O)C[C@@](O)(C(=O)CO)C[C@@H]3O[C@H]1C[C@H](N)[C@H](O)[C@H](C)O1` [doxorubicin, Doxorubicin], the “H2AX expression (ionising radiation marker, Western Blot)” value (pulsed technology vs control arms, FIG. 13) was “no observed change”. Also, the “p53alpha expression (Western Blot)” value was “significant overproduction” (pulsed technology vs control, after 16 hours, FIG. 14) and “upregulated” (then pulsed technology vs control, 3 to 24 hours, FIG. 13). Also, the “expression of other p53 isoforms d133p53alpha, d133p53beta and d160p53beta (Western Blot)” value (then pulsed technology vs control, FIG. 13) is “more upregulated”.
